The assay concerns the target T1, hNKCC1 (NT17, 3xFlag-YFP-tagged human NKCC1) (Homo sapiens, UniProt P55011).
T1 construct: gene SLC12A2; full-length human NKCC1 from synthetic cDNA with 262 silent mutations; N-terminal 3xFlag and YFP (mVenus) tags kept; pcDNA3.1-neo, stably expressed in HEK-293 cells
T1 sequence (P55011 1-1212): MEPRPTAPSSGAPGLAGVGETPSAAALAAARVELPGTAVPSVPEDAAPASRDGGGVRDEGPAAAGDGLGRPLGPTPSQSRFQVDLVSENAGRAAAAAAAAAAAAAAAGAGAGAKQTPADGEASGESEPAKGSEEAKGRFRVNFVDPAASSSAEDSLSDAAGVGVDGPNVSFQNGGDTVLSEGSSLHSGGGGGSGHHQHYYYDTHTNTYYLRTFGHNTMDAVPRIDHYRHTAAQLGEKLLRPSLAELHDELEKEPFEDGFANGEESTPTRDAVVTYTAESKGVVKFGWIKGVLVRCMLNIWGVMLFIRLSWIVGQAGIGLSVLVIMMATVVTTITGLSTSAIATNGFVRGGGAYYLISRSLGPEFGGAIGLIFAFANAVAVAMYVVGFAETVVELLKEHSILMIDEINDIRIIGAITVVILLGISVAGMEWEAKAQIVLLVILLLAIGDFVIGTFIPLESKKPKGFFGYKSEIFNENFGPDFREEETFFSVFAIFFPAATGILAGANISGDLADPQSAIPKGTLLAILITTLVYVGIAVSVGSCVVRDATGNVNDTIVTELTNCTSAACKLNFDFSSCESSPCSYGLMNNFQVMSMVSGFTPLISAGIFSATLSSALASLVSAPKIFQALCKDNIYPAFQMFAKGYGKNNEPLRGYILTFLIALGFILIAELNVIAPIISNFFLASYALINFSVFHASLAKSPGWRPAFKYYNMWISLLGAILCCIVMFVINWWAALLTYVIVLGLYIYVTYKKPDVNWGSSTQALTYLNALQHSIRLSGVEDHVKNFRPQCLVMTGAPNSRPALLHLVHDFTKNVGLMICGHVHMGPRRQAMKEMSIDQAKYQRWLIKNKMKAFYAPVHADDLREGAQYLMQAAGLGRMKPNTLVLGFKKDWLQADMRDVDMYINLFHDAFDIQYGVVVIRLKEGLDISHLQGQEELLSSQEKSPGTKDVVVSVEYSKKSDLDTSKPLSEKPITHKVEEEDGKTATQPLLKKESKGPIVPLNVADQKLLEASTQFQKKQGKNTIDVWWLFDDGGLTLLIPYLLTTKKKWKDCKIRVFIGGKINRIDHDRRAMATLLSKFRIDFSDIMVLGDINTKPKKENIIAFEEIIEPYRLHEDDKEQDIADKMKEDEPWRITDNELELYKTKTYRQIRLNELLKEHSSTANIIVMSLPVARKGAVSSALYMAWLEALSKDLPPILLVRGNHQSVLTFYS
Put plainly: influx inhibition in transfected HEK-293 cells, single-site fit. Type of assay: cell-based. To be noted: read-out: Ki (bumet).

As usually defined, the Ki is the dissociation constant of the complex between target and ligand, obtained from inhibition or displacement. Turning to `CCCCNc1cc(C(=O)O)cc(S(N)(=O)=O)c1Oc1ccccc1` [bumetanide], the Ki is 460 ± 100 nM.

(Values after article PMC3855340, “Functional Expression of Human NKCC1 from a Synthetic Cassette-Based cDNA: Introduction of Extracellular Epitope Tags and Removal of Cysteines” (PLoS ONE, 2013).)
